Test system: 186277-243-T-J2-PDC complex spheroid viability
Experiment: Anticancer human tumor 186277-243-T-J2-PDC patient-derived colon adenocarcinoma cell line growth inhibition [POLQ]
Conditions: for IC50: curve of first compound; for viability, T/C: stronger effect = lower value
Experimental: Multicellular complex tumor spheroid response to Polymerase (POL) inhibitors (novobiocin, ART-558, RP6685) in combination with a variety of drugs and investigational agents in selected tumor cell lines
The POL inhibitors (novobiocin, ART-558, and RP6685) were evaluated both individually and in combination with standard of care and investigational anticancer small molecules within a complex spheroid model of solid tumors. . Complex spheroids include a stromal component modeled by human endothelial cells (HUVEC) and fibroblasts modeled by human mesenchymal stem cells (MSCs). The concentration ranges selected for each drug and investigational agent were based upon clinically achievable concentrations if the clinical Cmax of the agent was known.
Compounds. The drugs and investigational agents: novobiocin (NSC847541), ART-558 (NSC835418), RP-6685 (NSC848927), peposertib (NSC802822), ceralasertib (NSC780249), elimusertib (NSC800525), camonsertib (NSC841442), AZD-1390 (NSC803789), olaparib (NSC753686), talazoparib (NSC767125), rucaparib (NSC756644), sotorasib (NSC818433), MRTX-1133 (NSC836407), SN-38 (NSC673596), topotecan (NSC609699), epotoside (NSC141540), doxorubicin (NSC123127), gemcitabine (NSC613327), 5-fluorouracil (NSC19893), paclitaxel (NSC125973), vemurafenib (NSC761431), MSA-2 (NSC828583), SN-011 (NSC837082), adavosertib (NSC754352), prexasertib (NSC758257), carboplatin (NSC241240) and oxaliplatin (NSC266046), were obtained from the National Cancer Institute (NCI) Developmental Therapeutics Program Chemical Repository (21). The FDA-approved anticancer drug set is available from the Developmental Therapeutics Program at https://dtp.cancer.gov/organization/dscb/obtaining/. […] The stock solutions were prepared in dimethyl sulfoxide (DMSO, Sigma-Aldrich, St. Louis, MO, cat. D2650), except for the platinum compounds which were prepared in saline (Quality Biological, Gaithersburg, MD, cat. 114-055-101), at 800-fold the tested concentration and stored at -70 degrees C prior to their use. All drugs and investigational agents were tested over a range starting from a high concentration at or near the clinical Cmax and decreasing in half-log increments. If the clinical Cmax for an agent had not been determined, the highest concentration tested was 10 microM, except for SN-38, which was tested at a high concentration of 1 microM.
Cell Culture. All cells were maintained in an incubator at 37 degrees C and 5% CO2 with 95% humidity. The PDC lines were cultured according to standard operating procedures established by the NCI PDMR (https://pdmr.cancer.gov). Table 3 of the manuscript, lists the cell lines along with the number of the three cell types plated to form the mct-spheroids and media for tumor cell growth. After thawing, all PDC lines, except 997537-175-T-J1-PDC and 415267-285-R-J2-PDC, were cultured in Matrigel-coated flasks prepared with a working solution of 1X Ham's F-12 nutrient mix, without supplementation (Thermo Fisher Scientific, cat. 11765054), 100 U/mL penicillin-streptomycin (Thermo Fisher Scientific, cat. 15140122), and 2.5% Matrigel (Corning Inc., Corning, NY, cat. 354248) for the first three passages. The two PDC lines 997537-175-T-J1-PDC and 415267-285-R-J2-PDC were cultured on uncoated flasks. The 857933-349-R-J2-PDC line was cultured in 6C/Colon 1B media containing advanced DMEM/F-12 (Thermo Fisher Scientific, cat. 12634028), 10 mM HEPES (Thermo Fisher Scientific, cat. 15630080), 1X GlutaMAX supplement (Thermo Fisher Scientific, cat. 35050061), 0.1 mg/mL primocin (InvivoGen, San Diego, CA, cat. ant-pm-2), 10% defined fetal bovine serum, heat inactivated (HyClone Laboratories Inc., Logan, UT, cat. SH30070.03HI), 50% L-WRN conditioned media (ATCC, cat. CRL-3276), 1.25 mM N-Acetyl-L-cysteine (Sigma-Aldrich, cat. A9165), 10 mM nicotinamide (Sigma-Aldrich, cat. N0636), 1X B-27 supplement (Thermo Fisher Scientific, cat. 17504044), 1X N-2 supplement (Thermo Fisher Scientific, cat. […]

[1] = second compound 0.0316 µM, first compound 0.0316 µM
[2] = second compound 0.0316 µM, first compound 0.1 µM
[3] = second compound 0.0316 µM, first compound 0.316 µM
[4] = second compound 0.0316 µM, first compound 1 µM
[5] = second compound 0.1 µM, first compound 0.0316 µM
[6] = second compound 0.1 µM, first compound 0.1 µM
[7] = second compound 0.1 µM, first compound 0.316 µM
[8] = second compound 0.1 µM, first compound 1 µM
[9] = second compound 0.316 µM, first compound 0.0316 µM
[10] = second compound 0.316 µM, first compound 0.1 µM
[11] = second compound 0.316 µM, first compound 0.316 µM
[12] = second compound 0.316 µM, first compound 1 µM
[13] = second compound 1 µM, first compound 0.0316 µM
[14] = second compound 1 µM, first compound 0.1 µM
[15] = second compound 1 µM, first compound 0.316 µM
[16] = second compound 1 µM, first compound 1 µM
[17] = second compound 3.16 µM, first compound 0.0316 µM
[18] = second compound 3.16 µM, first compound 0.1 µM
[19] = second compound 3.16 µM, first compound 0.316 µM
[20] = second compound 3.16 µM, first compound 1 µM
[21] = second compound 10 µM, first compound 0.0316 µM
[22] = second compound 10 µM, first compound 0.1 µM
[23] = second compound 10 µM, first compound 0.316 µM
[24] = second compound 10 µM, first compound 1 µM
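Note: spheroids exposed to compounds for seven days.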
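Throughout, for viability, T/C: 100% = DMSO vehicle control viability.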

Work on C#Cc1c(F)ccc2cc(O)cc(-c3ncc4c(N5CC6CCC(C5)N6)nc(OCC56CCCN5CC(F)C6)nc4c3F)c12 (centres undefined) + Nc1ccc(C#CCN(C(=O)Cc2ncc(C(F)(F)F)cc2C(F)(F)F)c2ccc(F)cc2)nn1 yielded an IC50 (second compound 0.0316 µM) of 315 nM, an IC50 (second compound 0.1 µM) of 264 nM and an IC50 (second compound 0.316 µM) of 262 nM. The IC50 (second compound 1 µM) was 288 nM, the IC50 (second compound 3.16 µM) was 178 nM and the IC50 (second compound 10 µM) was 122 nM. The viability, T/C [1] was 91.2%, the viability, T/C [2] was 96.2% and the viability, T/C [3] was 48.5%. It also gave a viability, T/C [4] of 25.6%, a viability, T/C (second compound 0.0316 µM, first compound 3.16 µM) of 15.5% and a viability, T/C (second compound 0.0316 µM, first compound 10 µM) of 10.8%. The viability, T/C [5] was 116%, the viability, T/C [6] was 93.6% and the viability, T/C [7] was 40.6%. It also gave a viability, T/C [8] of 22.1%, a viability, T/C (second compound 0.1 µM, first compound 3.16 µM) of 19.1% and a viability, T/C (second compound 0.1 µM, first compound 10 µM) of 10.1%. For the same compound, the viability, T/C [9] was 83.5%, the viability, T/C [10] was 97.2% and the viability, T/C [11] was 42%. The viability, T/C [12] was 27.4%, the viability, T/C (second compound 0.316 µM, first compound 3.16 µM) was 16.1% and the viability, T/C (second compound 0.316 µM, first compound 10 µM) was 10.7%. For the same compound, the viability, T/C [13] was 103%, the viability, T/C [14] was 91% and the viability, T/C [15] was 44.2%. For the same compound, the viability, T/C [16] was 22.3%, the viability, T/C (second compound 1 µM, first compound 3.16 µM) was 12.9% and the viability, T/C (second compound 1 µM, first compound 10 µM) was 8.94%. For the same compound, the viability, T/C [17] was 87.5%, the viability, T/C [18] was 70.9% and the viability, T/C [19] was 28.8%. The viability, T/C [20] was 15.3%, the viability, T/C (second compound 3.16 µM, first compound 3.16 µM) was 12.5% and the viability, T/C (second compound 3.16 µM, first compound 10 µM) was 8.73%. The viability, T/C [21] was 106%, the viability, T/C [22] was 55.2% and the viability, T/C [23] was 25%. The viability, T/C [24] was 15%, the viability, T/C (second compound 10 µM, first compound 3.16 µM) was 13% and the viability, T/C (second compound 10 µM, first compound 10 µM) was 8.18%.

Compound CCc1c2c(nc3ccc(O)cc13)-c1cc3c(c(=O)n1C2)COC(=O)[C@]3(O)CC + Cc1cccc(N(C)C(=O)C2C(O)CCN2c2nc(C)cc(C(F)(F)F)c2C#N)c1 has an IC50 (second compound 0.0316 µM) of 9.32 nM, an IC50 (second compound 0.1 µM) of 10.2 nM and an IC50 (second compound 0.316 µM) of 10.8 nM. The IC50 (second compound 1 µM) was 10.1 nM, the IC50 (second compound 3.16 µM) was 9.58 nM and the IC50 (second compound 10 µM) was 5.53 nM. For the same compound, the viability, T/C (second compound 0.0316 µM, first compound 0.00316 µM) was 69%, the viability, T/C (second compound 0.0316 µM, first compound 0.01 µM) was 48.5% and the viability, T/C [1] was 27%. The viability, T/C [2] was 12.7%, the viability, T/C [3] was 10.5% and the viability, T/C [4] was 7.92%. For the same compound, the viability, T/C (second compound 0.1 µM, first compound 0.00316 µM) was 74%, the viability, T/C (second compound 0.1 µM, first compound 0.01 µM) was 50.3% and the viability, T/C [5] was 25.7%. The viability, T/C [6] was 12.8%, the viability, T/C [7] was 9.86% and the viability, T/C [8] was 7.71%. For the same compound, the viability, T/C (second compound 0.316 µM, first compound 0.00316 µM) was 66.5%, the viability, T/C (second compound 0.316 µM, first compound 0.01 µM) was 51.6% and the viability, T/C [9] was 27.9%. For the same compound, the viability, T/C [10] was 13.8%, the viability, T/C [11] was 9.55% and the viability, T/C [12] was 8.34%. For the same compound, the viability, T/C (second compound 1 µM, first compound 0.00316 µM) was 73%, the viability, T/C (second compound 1 µM, first compound 0.01 µM) was 50.3% and the viability, T/C [13] was 24%. The viability, T/C [14] was 12.7%, the viability, T/C [15] was 10.4% and the viability, T/C [16] was 7.86%. The viability, T/C (second compound 3.16 µM, first compound 0.00316 µM) was 59.1%, the viability, T/C (second compound 3.16 µM, first compound 0.01 µM) was 50.1% and the viability, T/C [17] was 24.3%. The viability, T/C [18] was 12.1%, the viability, T/C [19] was 9.42% and the viability, T/C [20] was 6.8%. It also gave a viability, T/C (second compound 10 µM, first compound 0.00316 µM) of 58.6%, a viability, T/C (second compound 10 µM, first compound 0.01 µM) of 40.8% and a viability, T/C [21] of 21%. The viability, T/C [22] was 9.71%, the viability, T/C [23] was 8.72% and the viability, T/C [24] was 6.68%.

From PubChem BioAssay AID1963854 (Molecular Pharmacology Branch, DTP, NCI, 2024)
